# From US12410262B2, “Peptide conjugates of cytotoxins as therapeutics” (Cybrexa 2, Inc., priority 2019, dated 2025)
# Read-outs that look alike come from different tables or passages of the source. Residues, ends and D or L forms follow the SMILES beside them. *: point of attachment. X2 = CC[C@@]1(O)C(=O)OCc2c1cc1n(c2=O)Cc2c-1nc1cc(F)c(C)c3c1c2[C@@H](NC(=O)O[C@H](C)[C@@H](C)S*)CC3; X4 = CC[C@@]1(O)C(=O)OCc2c1cc1n(c2=O)Cc2c-1nc1cc(F)c(C)c3c1c2[C@@H](NC(=O)O[C@@H](C)[C@H](C)S*)CC3; X1 = CC[C@@]1(O)C(=O)OCc2c1cc1n(c2=O)Cc2c-1nc1cc(F)c(C)c3c1c2[C@@H](NC(=O)O[C@H](C)[C@H](C)S*)CC3; X6 = CC[C@@]1(O)C(=O)OCc2c1cc1n(c2=O)Cc2c-1nc1cc(F)c(C)c3c1c2[C@@H](NC(=O)OCC1(S*)CCC1)CC3
# Columns and labels:
# Assay in all cases: cells
# [1] = test system: DLD-1 WT cells; format: cell-based
# Protocol: (§1) Cells were plated in 96 well black walled-clear bottom plates (Griener), DLD-1 WT cells at 2500 cells per well, FaDu, and HeLa cells at 5000 cells per well, and HCT116 at 3000 cells per well, in growth media containing 10% FBS. Cells were allowed to adhere at room temperature for 60 minutes before returning to a 37 C, 5% CO2 incubator. After 24 hours, media was removed and replaced with fresh growth media containing various drug concentrations. Each drug concentration was added in triplicate. Non-drug treated controls contained growth media only. Cells were returned to the incubator. Ninety-six hours after addition of drug, cells were fixed with 4% paraformaldehyde for 20 minutes and stained with Hoechst at 1 ug/mL. The plates were imaged on a Cytation 5 auto imager (BioTek) and cells were counted using CellProfiler (http://cellprofiler.org). The percent cell growth delay was calculated and data plotted using GraphPad Prism
# [2] = test system: FaDu; format: cell-based
# Protocol: as §1
# [3] = test system: HeLa cells; format: cell-based
# Protocol: as §1
# [4] = test system: HCT116; format: cell-based, human
# In short: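 DLD-1 WT (2500/well), FaDu and HeLa (5000/well) and HCT116 (3000/well) were grown in 10% FBS media and dosed in triplicate 24 h after plating. After 96 h of drug exposure at 37 °C, cells were fixed, Hoechst-stained and counted by imaging; percent growth delay was calculated versus untreated controls.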
Compound,IC50 ([1]; 96 h) [nM],IC50 ([2]; 96 h) [nM],IC50 ([3]; 96 h) [nM],IC50 ([4]; 96 h) [nM],further results
CC[C@H](C)[C@H](NC(=O)[C@@H]1CCCN1C(=O)[C@H](CC(N)=O)NC(=O)[C@H](CCC(N)=O)NC(=O)[C@H](CCC(=O)O)NC(=O)[C@H](C)N)C(=O)N[C@@H](Cc1ccc(O)cc1)C(=O)N[C@@H](Cc1c[nH]c2ccccc12)C(=O)N[C@@H](C)C(=O)N[C@@H](CCCNC(=N)N)C(=O)N[C@@H](Cc1ccc(O)cc1)C(=O)N[C@@H](C)C(=O)N[C@@H](CC(=O)O)C(=O)N[C@@H](Cc1c[nH]c2ccccc12)C(=O)N[C@@H](CC(C)C)C(=O)N[C@@H](Cc1ccccc1)C(=O)N[C@H](C(=O)N[C@H](C(=O)N1CCC[C@H]1C(=O)N[C@@H](CC(C)C)C(=O)N[C@@H](CC(C)C)C(=O)N[C@@H](CC(C)C)C(=O)N[C@@H](CC(C)C)C(=O)N[C@@H](CC(=O)O)C(=O)N[C@@H](CC(C)C)C(=O)N[C@@H](C)C(=O)N[C@@H](CC(C)C)C(=O)N[C@@H](CC(C)C)C(=O)N[C@H](C(=O)N[C@@H](CC(=O)O)C(=O)N[C@@H](C)C(=O)N[C@@H](CC(=O)O)C(=O)N[C@@H](CCC(=O)O)C(=O)N[C@@H](CSS[C@@H](C)[C@@H](C)OC(=O)N[C@H]1CCc2c(C)c(F)cc3nc4c(c1c23)Cn1c-4cc2c(c1=O)COC(=O)[C@]2(O)CC)C(=O)NCC(=O)O)C(C)C)[C@@H](C)O)[C@@H](C)O [Compound 6] (H-AEQNPIYWARYADWLFTTPLLLLDLALLVDADEC(X1)G-OH; N-terminus and C-terminus assumed),13.9,0.76,0.62,1,
"CC[C@@]1(O)C(=O)OCc2c1cc1n(c2=O)Cc2c-1nc1cc(F)c(C)c3c1c2[C@@H](N)CC3 [R^8H-5, (10S,23S)-23-amino-10-ethyl-18-fluoro-10-hydroxy-19-methyl-8-oxa-4,15-diazahexacyclo[14.7.1.02,14.04,13.06,11.020,24]tetracosa-1,6(11),12,14,16(24),17,19-heptaene-5,9-dione; methanesulfonic acid, reference compound]",,,,,"IC50 ([1]; Homo sapiens, DLD-1 WT cells, 96 h after addition of drug, IC = incomplete curve, read-out: DLD-1 (IC50)): 0.13 nM; IC50 ([2]; Homo sapiens, FaDu cells, 96 h after addition of drug, read-out: FaDu (IC50)): 0.04 nM; IC50 ([3]; Homo sapiens, HeLa cells, 96 h after addition of drug, read-out: HeLa (IC50)): 0.12 nM; IC50 ([4]; Homo sapiens, HCT-116, HCT116 cells, 96 h after addition of drug, read-out: HCT116 (IC50)): 0.05 nM"
CC[C@H](C)[C@H](NC(=O)[C@@H]1CCCN1C(=O)[C@H](CC(N)=O)NC(=O)[C@H](CCC(N)=O)NC(=O)[C@H](CCC(=O)O)NC(=O)[C@H](C)N)C(=O)N[C@@H](Cc1ccc(O)cc1)C(=O)N[C@@H](Cc1c[nH]c2ccccc12)C(=O)N[C@@H](C)C(=O)N[C@@H](CCCNC(=N)N)C(=O)N[C@@H](Cc1ccc(O)cc1)C(=O)N[C@@H](C)C(=O)N[C@@H](CC(=O)O)C(=O)N[C@@H](Cc1c[nH]c2ccccc12)C(=O)N[C@@H](CC(C)C)C(=O)N[C@@H](Cc1ccccc1)C(=O)N[C@H](C(=O)N[C@H](C(=O)N1CCC[C@H]1C(=O)N[C@@H](CC(C)C)C(=O)N[C@@H](CC(C)C)C(=O)N[C@@H](CC(C)C)C(=O)N[C@@H](CC(C)C)C(=O)N[C@@H](CC(=O)O)C(=O)N[C@@H](CC(C)C)C(=O)N[C@@H](C)C(=O)N[C@@H](CC(C)C)C(=O)N[C@@H](CC(C)C)C(=O)N[C@H](C(=O)N[C@@H](CC(=O)O)C(=O)N[C@@H](C)C(=O)N[C@@H](CC(=O)O)C(=O)N[C@@H](CCC(=O)O)C(=O)N[C@@H](CSS[C@H](C)[C@@H](C)OC(=O)N[C@H]1CCc2c(C)c(F)cc3nc4c(c1c23)Cn1c-4cc2c(c1=O)COC(=O)[C@]2(O)CC)C(=O)NCC(=O)O)C(C)C)[C@@H](C)O)[C@@H](C)O [Compound 4] (H-AEQNPIYWARYADWLFTTPLLLLDLALLVDADEC(X2)G-OH; N-terminus and C-terminus assumed),0.8,0.06,0.07,0.1,
CC[C@H](C)[C@H](NC(=O)[C@@H]1CCCN1C(=O)[C@H](CC(N)=O)NC(=O)[C@H](CCC(N)=O)NC(=O)[C@H](CCC(=O)O)NC(=O)[C@H](C)N)C(=O)N[C@@H](Cc1ccc(O)cc1)C(=O)N[C@@H](Cc1c[nH]c2ccccc12)C(=O)N[C@@H](C)C(=O)N[C@@H](CCCNC(=N)N)C(=O)N[C@@H](Cc1ccc(O)cc1)C(=O)N[C@@H](C)C(=O)N[C@@H](CC(=O)O)C(=O)N[C@@H](Cc1c[nH]c2ccccc12)C(=O)N[C@@H](CC(C)C)C(=O)N[C@@H](Cc1ccccc1)C(=O)N[C@H](C(=O)N[C@H](C(=O)N1CCC[C@H]1C(=O)N[C@@H](CC(C)C)C(=O)N[C@@H](CC(C)C)C(=O)N[C@@H](CC(C)C)C(=O)N[C@@H](CC(C)C)C(=O)N[C@@H](CC(=O)O)C(=O)N[C@@H](CC(C)C)C(=O)N[C@@H](C)C(=O)N[C@@H](CC(C)C)C(=O)N[C@@H](CC(C)C)C(=O)N[C@H](C(=O)N[C@@H](CC(=O)O)C(=O)N[C@@H](C)C(=O)N[C@@H](CC(=O)O)C(=O)N[C@@H](CCC(=O)O)C(=O)N[C@@H](CSSC1(COC(=O)N[C@H]2CCc3c(C)c(F)cc4nc5c(c2c34)Cn2c-5cc3c(c2=O)COC(=O)[C@]3(O)CC)CCC1)C(=O)NCC(=O)O)C(C)C)[C@@H](C)O)[C@@H](C)O [Compound 3] (H-AEQNPIYWARYADWLFTTPLLLLDLALLVDADEC(X6)G-OH; N-terminus and C-terminus assumed),,,,,"IC50 ([2]; FaDu cells, 96 h after addition of drug, read-out: FaDu (IC50)): 5.9 nM; IC50 ([3]; HeLa cells, 96 h after addition of drug, read-out: HeLa (IC50)): 7.6 nM; IC50 ([4]; HCT116 cells, 96 h after addition of drug, read-out: HCT116 (IC50)): 8.33 nM"
CC[C@H](C)[C@H](NC(=O)[C@@H]1CCCN1C(=O)[C@H](CC(N)=O)NC(=O)[C@H](CCC(N)=O)NC(=O)[C@H](CCC(=O)O)NC(=O)[C@H](C)N)C(=O)N[C@@H](Cc1ccc(O)cc1)C(=O)N[C@@H](Cc1c[nH]c2ccccc12)C(=O)N[C@@H](C)C(=O)N[C@@H](CCCNC(=N)N)C(=O)N[C@@H](Cc1ccc(O)cc1)C(=O)N[C@@H](C)C(=O)N[C@@H](CC(=O)O)C(=O)N[C@@H](Cc1c[nH]c2ccccc12)C(=O)N[C@@H](CC(C)C)C(=O)N[C@@H](Cc1ccccc1)C(=O)N[C@H](C(=O)N[C@H](C(=O)N1CCC[C@H]1C(=O)N[C@@H](CC(C)C)C(=O)N[C@@H](CC(C)C)C(=O)N[C@@H](CC(C)C)C(=O)N[C@@H](CC(C)C)C(=O)N[C@@H](CC(=O)O)C(=O)N[C@@H](CC(C)C)C(=O)N[C@@H](C)C(=O)N[C@@H](CC(C)C)C(=O)N[C@@H](CC(C)C)C(=O)N[C@H](C(=O)N[C@@H](CC(=O)O)C(=O)N[C@@H](C)C(=O)N[C@@H](CC(=O)O)C(=O)N[C@@H](CCC(=O)O)C(=O)N[C@@H](CSS[C@@H](C)[C@H](C)OC(=O)N[C@H]1CCc2c(C)c(F)cc3nc4c(c1c23)Cn1c-4cc2c(c1=O)COC(=O)[C@]2(O)CC)C(=O)NCC(=O)O)C(C)C)[C@@H](C)O)[C@@H](C)O [Compound 5] (H-AEQNPIYWARYADWLFTTPLLLLDLALLVDADEC(X4)G-OH; N-terminus and C-terminus assumed),0.83,0.06,0.07,0.12,
